# ChEMBL document CHEMBL1201862, “PubChem BioAssay data set” (2004)
#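 Five concentrations, 48 hours, 96-well plates. At the GI50, growth is halved.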 Active and inactive are the calls of the source. No stated cut-off is given here; in the data, active = GI50 up to about 1.1 µM and inactive = higher. Where a SMILES comes first, the peptide text is derived from it. [ ]: non-standard residue; d: D form. Aoe = N[C@@H](CCCCCC(=O)[C@@H]1CO1)C(=O)O
# Columns and labels:
# Experiment in all cases: NCI-60 cell line screen, 48 h
# OVCAR-8 = test system: OVCAR-8
# OVCAR-5 = test system: OVCAR-5
# PC-3 = test system: PC-3
# K562 = test system: K562
# NCI/ADR-RES = test system: NCI/ADR-RES
# BT-549 = test system: BT-549
# SR = test system: SR
# Malme-3M = test system: Malme-3M
# IGROV-1 = test system: IGROV-1
# SN12C = test system: SN12C
# HOP-92 = test system: HOP-92
# SK-MEL-28 = test system: SK-MEL-28
# SNB-19 = test system: SNB-19
# RPMI-8226 = test system: RPMI-8226
# LOX IMVI = test system: LOX IMVI
# COLO 205 = test system: COLO 205
# OVCAR-3 = test system: OVCAR-3
# EKVX = test system: EKVX
# SF-295 = test system: SF-295
# A498 = test system: A498
SMILES,GI50 (OVCAR-8),GI50 (OVCAR-5),GI50 (PC-3),GI50 (K562),GI50 (NCI/ADR-RES),GI50 (BT-549),GI50 (SR),GI50 (Malme-3M),GI50 (IGROV-1),GI50 (SN12C),GI50 (HOP-92),GI50 (SK-MEL-28),GI50 (SNB-19),GI50 (RPMI-8226),GI50 (LOX IMVI),GI50 (COLO 205),GI50 (OVCAR-3),GI50 (EKVX),GI50 (SF-295),GI50 (A498)
Cc1ccc(S(=O)(=O)NC(=O)NS(=O)(=O)O)cc1,> 100 µM (inactive),> 100 µM (inactive),> 100 µM (inactive),> 100 µM (inactive),> 100 µM (inactive),> 100 µM (inactive),< 0.01 µM (active),> 100 µM (inactive),> 100 µM (inactive),> 100 µM (inactive),> 100 µM (inactive),> 100 µM (inactive),> 100 µM (inactive),0.0771 µM (active),> 100 µM (inactive),> 100 µM (inactive),,,,
CC(=O)N1C(Nc2ccccn2)CCN1c1ccccc1 (centres undefined),> 10 µM (inactive),> 10 µM (inactive),> 10 µM (inactive),> 10 µM (inactive),> 10 µM (inactive),> 10 µM (inactive),> 10 µM (inactive),> 10 µM (inactive),> 10 µM (inactive),> 10 µM (inactive),> 10 µM (inactive),> 10 µM (inactive),> 10 µM (inactive),> 10 µM (inactive),> 10 µM (inactive),> 10 µM (inactive),> 10 µM (inactive),> 10 µM (inactive),> 10 µM (inactive),
CN(C)CCNC(=O)c1cccc2c1Oc1cccc([N+](=O)[O-])c1O2,20.8 µM (inactive),20.5 µM (inactive),15.4 µM (inactive),20 µM (inactive),19.1 µM (inactive),13.3 µM (inactive),21.1 µM (inactive),14.1 µM (inactive),18.9 µM (inactive),23.3 µM (inactive),,18.8 µM (inactive),30 µM (inactive),,,21.6 µM (inactive),20.8 µM (inactive),,17.5 µM (inactive),15 µM (inactive)
NC1OC(COC(=O)c2ccccc2)C(O)C(OC(=O)c2ccccc2)C1OC(=O)c1ccccc1 (centres undefined),17.9 µM (inactive),24.3 µM (inactive),19.7 µM (inactive),,33.3 µM (inactive),20.7 µM (inactive),> 10 µM (inactive),16.7 µM (inactive),16.9 µM (inactive),24.3 µM (inactive),35.2 µM (inactive),20.2 µM (inactive),33 µM (inactive),> 100 µM (inactive),14.4 µM (inactive),22.1 µM (inactive),25.2 µM (inactive),21.3 µM (inactive),17.2 µM (inactive),
Cc1cccc2c1Oc1cc(Cl)ccc1C2NC(=O)CCN1CCOCC1 (centres undefined),> 100 µM (inactive),> 100 µM (inactive),> 100 µM (inactive),> 100 µM (inactive),> 100 µM (inactive),> 100 µM (inactive),> 100 µM (inactive),,> 100 µM (inactive),> 100 µM (inactive),18.1 µM (inactive),> 100 µM (inactive),> 100 µM (inactive),,> 100 µM (inactive),> 100 µM (inactive),> 100 µM (inactive),> 100 µM (inactive),> 100 µM (inactive),
c1ccc(CNCCCCNCCCNCc2ccccc2)cc1,> 10 µM (inactive),30.2 µM (inactive),13.6 µM (inactive),18 µM (inactive),> 100 µM (inactive),16.3 µM (inactive),17.6 µM (inactive),15.5 µM (inactive),13.1 µM (inactive),19.8 µM (inactive),11.8 µM (inactive),16 µM (inactive),16.4 µM (inactive),27.7 µM (inactive),17.7 µM (inactive),13.6 µM (inactive),20 µM (inactive),25.6 µM (inactive),> 100 µM (inactive),
CC(NC(=O)C(C)C(=O)NCc1ccc(C(F)(F)F)cc1)C(N)=O (centres undefined),> 100 µM (inactive),> 100 µM (inactive),> 100 µM (inactive),> 100 µM (inactive),> 100 µM (inactive),84.7 µM (inactive),> 100 µM (inactive),27.9 µM (inactive),> 100 µM (inactive),> 100 µM (inactive),> 100 µM (inactive),,63.8 µM (inactive),> 100 µM (inactive),,> 100 µM (inactive),,> 100 µM (inactive),> 100 µM (inactive),
COc1cc2ccc(/C=C\[N+](=O)[O-])cc2cc1OC,3.12 µM (inactive),13.1 µM (inactive),2.58 µM (inactive),2.39 µM (inactive),6.43 µM (inactive),2.32 µM (inactive),1.98 µM (inactive),,1.97 µM (inactive),2.37 µM (inactive),4.41 µM (inactive),2.66 µM (inactive),7.52 µM (inactive),1.67 µM (inactive),1.79 µM (inactive),4.07 µM (inactive),3.5 µM (inactive),4.3 µM (inactive),18.2 µM (inactive),15.5 µM (inactive)
C=CCN1C[C@H](C)N([C@H](c2ccc(C(=O)NC(CC)CC)cc2)c2cccc(OC)c2)C[C@H]1C,62.5 µM (inactive),59.6 µM (inactive),31.1 µM (inactive),32.4 µM (inactive),42.8 µM (inactive),29.1 µM (inactive),23.7 µM (inactive),20.4 µM (inactive),65.3 µM (inactive),36.8 µM (inactive),31.7 µM (inactive),,75 µM (inactive),,4.38 µM (inactive),17.9 µM (inactive),52.4 µM (inactive),79.4 µM (inactive),39.8 µM (inactive),21.7 µM (inactive)
O=C(O)CCCc1ccc2c(c1)C(C(=O)O)CC2 (centres undefined),> 100 µM (inactive),> 100 µM (inactive),> 100 µM (inactive),> 100 µM (inactive),> 100 µM (inactive),76 µM (inactive),> 100 µM (inactive),> 100 µM (inactive),> 100 µM (inactive),> 100 µM (inactive),,> 100 µM (inactive),> 100 µM (inactive),> 100 µM (inactive),> 100 µM (inactive),> 100 µM (inactive),,> 100 µM (inactive),> 100 µM (inactive),
O=C1N[C@@H](Cc2ccccc2)C(=O)N2CCC[C@@H]2C(=O)N[C@@H](CCCCCC(=O)[C@@H]2CO2)C(=O)N[C@H]1Cc1ccccc1 [TRAPOXIN B] (cyclo(FF[dP][Aoe])),< 0.000212 µM (active),0.00197 µM (active),0.00209 µM (active),< 0.000212 µM (active),0.0475 µM (active),0.389 µM (active),,< 0.000212 µM (active),0.019 µM (active),0.0104 µM (active),0.00574 µM (active),0.000713 µM (active),0.103 µM (active),0.000332 µM (active),0.000472 µM (active),0.000778 µM (active),0.00122 µM (active),0.0632 µM (active),0.0145 µM (active),0.518 µM (active)
